Earlier results, collected in patent publication US10722456B2, “Oral composition of celecoxib for treatment of pain” (Dr. Reddy's Laboratories Ltd., priority 2016, dated 2020).

Conditions: oral administration

- time for peak plasma concentrations to be achieved: approximately 3.0 hours
SMILES: Cc1ccc(-c2cc(C(F)(F)F)nn2-c2ccc(S(N)(=O)=O)cc2)cc1 [Celecoxib, 4-[5-(4-methylphenyl)—3-(trifluoromethyl)-1H-pyrazol-1-yl] benzenesulfonamide]
